From US9376382B2, “N-substituted isopropyldimethyl azulene sulfonamide derivatives, and preparation method and use thereof” (Sichuan Guokang Pharmaceutical Co., Ltd., priority 2011, dated 2016)

Key:
[1] = system: ethanol-induced gastric ulcer; assay: Anhydrous ethanol-induced gastric ulcer in mice; assay type: in vivo, Kunming mice; set-up: key to Gastri ulcer score (X ± SD) / Ulcer score (X ± SD) / Gastric ulcer score (X ± SD): summed pathology score: congestion 1, hemorrhage/erosion 1, linear erosion 3
Experimental: Kunming mice, half male and half female, weighing 18-22 g, provided by the West China Animal Center
(1) Azulene sodium sulphonate was added with 0.5% CMC to prepare a suspension with concentration of 0.15 mg/ml.
(2) 20 mg of Omeprazole was added with 0.5% CMC to prepare a suspension with concentration of 0.67 mg/ml.
Kunming mice were randomly grouped according the body weight (one model control group or negative control group, one Omeprazole control group or positive control group, one Azulene sodium sulphonate control group, twelve test drug groups), eight mice for each group, half male and half female.
Administration: Model control group was administrated intragastrically with 0.5% CMC solution at a dose of 0.4 ml/20 g; Omeprazole control group was administrated intragastrically with Omeprazole at a dose of 0.4 ml/20 g, Azulene sodium sulphonate control group and each test drug groups were administrated intragastrically with their respective drug at a dose of 0.4 ml/20 g. The mice in each group were administrated once a day for successive five days. 0.5 hour after final administration, the mice in each group were administrated intragastrically with 0.5 ml of anhydrous ethanol, one hour later the mice were executed and dissected, and their stomaches were taken, washed and scored according to the pathological degree. For local congestion and rubefaction, score was 1; for petechial hemorrhage or erosion, score was respectively 1, for each linear erosion, score was 3. Statistical analysis was performed. Ulcer scores were calculated, significant differences between the groups were compared and the inhibition rates of ulcer were calculated [Inhibition rate of ulcer=(ulcer score of model group−ulcer score of drug administration group)/ulcer score of model group].

[2] = Intense light irradiation test (4500LX ± 500LX), stability study; assay type: physicochemical; conditions: for Appearance Day 0: Day 0, cell wraps; for Appearance Day 0 / Appearance Day 5 / Appearance Day 10: first line given; for Appearance Day 5: Day 5, cell wraps; for Appearance Day 10: Day 10, cell wraps
Experimental: (§1) The test samples were open-stored in “adjustable light boxes” under the conditions of illumination of 4500LX±500LX for 10 days, and taken and detected on Day 5 and Day 10 with regards to dry items. • The characteristics, especially colour change was observed. • Melting points were measured by an automatic melting point apparatus. • By self-reflection, TLC is used to observe whether the spot numbers were increased after 5 days and 10 days.

[3] = Stability studies (light, humidity, heat), overall comparison; conditions: summary of high-temperature, high humidity and intense light tests
Experimental: (§2) The test samples were open-stored in culture dishes at 60° C. for 10 days, and taken and detected on Day 5 and Day 10. • The characteristics, especially colour change were observed. • Melting points were measured by automatic melting point apparatus. • By self-reflection, TLC is used to observe whether the spot numbers were increased after 5 days and 10 days.
(§3) The test samples were open-stored in closed constant humidity desiccators under the condition of 25° C. and relative humidity of 90%+5% for 10 days, and taken and detected on Day 5 and Day 10. Meanwhile, each sample was accurately weighed before and after test.
as §1

[4] = High-temperature test (60° C.), stability study; assay type: physicochemical; conditions: open-stored; for Appearance Day 5: Day 5, cell wraps; for Appearance Day 5 / Appearance Day 10: first line given; for Appearance Day 10: Day 10, cell wraps;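 for all read-outs here: samples kept uncovered in dishes at 60 °C for up to 10 days and examined on Day 5 and Day 10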
Experimental: as §2

[5] = High humidity test (25° C., relative humidity 90% ± 5%), stability study; assay type: physicochemical; conditions: RH 90% ± 5%; for Appearance Day 0: Day 0, cell wraps; for Appearance Day 0 / Appearance Day 5 / Appearance Day 10: first line given; for Appearance Day 5: Day 5, cell wraps; for Appearance Day 10: Day 10, cell wraps;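 for all read-outs here: samples kept uncovered in sealed humidity desiccators, appearance judged mainly by colour change, melting point on an automatic apparatus, TLC checked for extra spots versus start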
Experimental: as §3
The characteristics, especially colour change was observed.
Melting points were measured by an automatic melting point apparatus.
By self-reflection, TLC is used to observe whether the spot numbers were increased after 5 days and 10 days.

Melting point Day 0 [2] | Spot numbers on TLC Day 0 [2] | Appearance Day 0 [2] | Melting point Day 5 [2] | Spot numbers on TLC Day 5 [2] | Appearance Day 5 [2] | Spot numbers on TLC Day 10 [2] | Appearance Day 10 [2] | Melting point Day 0 [4] | Spot numbers on TLC Day 0 [4] | Melting point Day 5 [4] | Spot numbers on TLC Day 5 [4] | Appearance Day 5 [4] | Melting point Day 10 [4] | Spot numbers on TLC Day 10 [4] | Appearance Day 10 [4] | melting point | Melting point Day 0 [5] | Spot numbers on TLC Day 0 [5] | Structure (SMILES) | light, humidity and heat stability in words [3] | also measured
172.5-174.0 °C | 1 | purple | 172.0-175.0 °C | 1 | purple | 1 | purple | 172.5-174.0 °C | 1 | 172.0-173.5 °C | 1 | purple | 172.5-174.0 °C | 1 | purple | 172 to 174 °C | 172.5-174.0 °C | 1 | Cc1cc(S(=O)(=O)Nc2cccc(Br)c2)c2c(C)ccc(C(C)C)cc1-2 [4a, N-(3-bromophenyl)-3,8-dimethyl-5-isopropyl-1-azulene sulfonamide] | better light, humidity and heat stability than azulene sulfonate sodium | Inhibition rate (%) ([1]; Table 4, inhibition rate of ulcer vs model group): 51.31%; Gastri ulcer score (X ± SD) ([1]; Table 4, mice, intragastric once a day for five days, dose equimolar to azulene sulfonate sodium 3.0 mg/kg (Omeprazole 13.4 mg/kg), model group 13.00 ± 1.77): 6.33 ± 4.50; anti-gastric ulcer effect in words ([1]; ethanol-induced gastric ulcer in mice, compared to the model group): significantly relieve the pathological degree; Melting point Day 10 [2]: 173.0-174.0 °C; hygroscopic rate (%) Day 0 [5]: 1.01%; Appearance Day 0 [5]: purple; Melting point Day 5 [5]: 172.0-174.5 °C; Spot numbers on TLC Day 5 [5]: 1; hygroscopic rate (%) Day 5 [5]: 1.46%; Appearance Day 5 [5]: purple; Melting point Day 10 [5]: 172.0-174.5 °C; Spot numbers on TLC Day 10 [5]: 1; Appearance Day 10 [5]: purple
59.5-62.5 °C | 1 | purple | 58.5-62.0 °C | 1 | purple | 2 | purple | 59.5-62.5 °C | 1 | 60.0-62.0 °C | 1 | purple | 60.0-62.0 °C | 1 | purple | 60 to 62 °C | 59.5-62.5 °C | 1 | CCCNS(=O)(=O)c1cc(C)c2cc(C(C)C)ccc(C)c1-2 [4f, N-propyl-3,8-dimethyl-5-isopropyl-1-azulene sulfonamide] | better light, humidity and heat stability than azulene sulfonate sodium | Melting point Day 10 [2]: 57.5-61.5 °C; hygroscopic rate (%) Day 0 [5]: 1.13%; Appearance Day 0 [5]: purple; Melting point Day 5 [5]: 59.5-63.0 °C; Spot numbers on TLC Day 5 [5]: 1; hygroscopic rate (%) Day 5 [5]: 1.28%; Appearance Day 5 [5]: purple; Melting point Day 10 [5]: 59.5-63.0 °C; Spot numbers on TLC Day 10 [5]: 1; Appearance Day 10 [5]: purple
146.0-148.5 °C | 1 | purple | 145.0-147.5 °C | 1 | purple | 2 | purple | 146.0-148.5 °C | 1 | 146.0-148.0 °C | 1 | purple | 145.5-147.5 °C | 1 | purple | 146 to 148 °C | 146.0-148.5 °C | 1 | Cc1ccc(NS(=O)(=O)c2cc(C)c3cc(C(C)C)ccc(C)c2-3)cc1 [4g, N-(4-methylphenyl)-3,8-dimethyl-5-isopropyl-1-azulene sulfonamide] | better light, humidity and heat stability than azulene sulfonate sodium | Melting point Day 10 [2]: 143.5-147.5 °C; hygroscopic rate (%) Day 0 [5]: 1.56%; Appearance Day 0 [5]: purple; Melting point Day 5 [5]: 145.5-148.5 °C; Spot numbers on TLC Day 5 [5]: 1; hygroscopic rate (%) Day 5 [5]: 2.01%; Appearance Day 5 [5]: purple; Melting point Day 10 [5]: 145.5-148.5 °C; Spot numbers on TLC Day 10 [5]: 1; Appearance Day 10 [5]: purple
123.5-125.5 °C | 1 | blue | 122.0-125.5 °C | 1 | blue | 2 | blue | 123.5-125.5 °C | 1 | 123.5-125.5 °C | 1 | blue | 124.5-125.0 °C | 1 | blue | 96 to 98 °C | 123.5-125.5 °C | 1 | CCNS(=O)(=O)c1cc(C)c2cc(C(C)C)ccc(C)c1-2 [4h, N-ethyl-3,8-dimethyl-5-isopropyl-1-azulene sulfonamide] | better light, humidity and heat stability than azulene sulfonate sodium | Melting point Day 10 [2]: 121.0-126.0 °C; hygroscopic rate (%) Day 0 [5]: 1.14%; Appearance Day 0 [5]: blue; Melting point Day 5 [5]: 123.5-125.5 °C; Spot numbers on TLC Day 5 [5]: 1; hygroscopic rate (%) Day 5 [5]: 2.11%; Appearance Day 5 [5]: blue; Melting point Day 10 [5]: 123.5-125.5 °C; Spot numbers on TLC Day 10 [5]: 1; Appearance Day 10 [5]: blue
124.0-125.5 °C | 1 | dark blue | 123.5-125.5 °C | 1 | dark | 2 | blue | 124.0-125.5 °C | 1 | 124.0-125.5 °C | 1 | dark blue | 124.0-125.5 °C | 1 | blue | 124 to 126 °C | 124.0-126.0 °C | 1 | Cc1cc(S(=O)(=O)NCc2ccccc2)c2c(C)ccc(C(C)C)cc1-2 [4j, N-benzyl-3,8-dimethyl-5-isopropyl-1-azulene sulfonamide] | better light, humidity and heat stability than azulene sulfonate sodium | hygroscopic rate (%) Day 0 [5]: 1.24%; Appearance Day 0 [5]: dark; Melting point Day 5 [5]: 124.0-126.5 °C; Spot numbers on TLC Day 5 [5]: 1; hygroscopic rate (%) Day 5 [5]: 2.08%; Appearance Day 5 [5]: dark; Melting point Day 10 [5]: 124.5-126.5 °C; Spot numbers on TLC Day 10 [5]: 1; Appearance Day 10 [5]: blue
134.5-135.0 °C | 1 | purple | 134.0-135.5 °C | 1 | purple | 1 | purple | 134.5-135.0 °C | 1 | 134.0-135.5 °C | 1 | purple | 134.0-135.5 °C | 1 | purple | 134 to 135 °C | 134.5-135.0 °C | 1 | Cc1cc(S(=O)(=O)Nc2ccc(Cl)cc2)c2c(C)ccc(C(C)C)cc1-2 [4k, N-(4-chlorophenyl)-3,8-dimethyl-5-isopropyl-1-azulene sulfonamide] | better light, humidity and heat stability than azulene sulfonate sodium | Melting point Day 10 [2]: 134.0-135.5 °C; hygroscopic rate (%) Day 0 [5]: 1.17%; Appearance Day 0 [5]: purple; Melting point Day 5 [5]: 134.5-135.5 °C; Spot numbers on TLC Day 5 [5]: 1; hygroscopic rate (%) Day 5 [5]: 1.87%; Appearance Day 5 [5]: purple; Melting point Day 10 [5]: 134.5-135.5 °C; Spot numbers on TLC Day 10 [5]: 1; Appearance Day 10 [5]: purple
